Source: patent EP0480258A2, “Use of substituted 2-mercapto-nicotinic acid derivatives for combat against endoparasites, novel substituted 2-mercaptonicotinir acid derivatives and processes for their preparation” (BAYER AG, priority 1990, dated 1992)

Columns and labels:
Haemonchus contortus = assay: In vivo nematode test, Haemonchus contortus / sheep; conditions: experimentally infected sheep (Schaf), treated after the prepatent period, pure active compound in gelatin capsules, oral, dose giving complete cessation of egg excretion in faeces, read-out: Dosis effectiva
Source text: Haemonchus contortus / Schaf
Experimentell mit Haemonchus contortus infizierte Schafe wurden nach Ablauf der Präpatenzzeit des Parasiten behandelt. Die Wirkstoffe wurden als reiner Wirkstoff in Gelatinekapseln oral appliziert.
Der Wirkungsgrad wird dadurch bestimmt, daß man die mit dem Kot ausgeschiedenen […] vor und nach der Behandlung quantitativ auszählt.
Ein völliges Sistieren der Eiausscheidung nach der Behandlung bedeutet, daß die Würmer abgetrieben wurden oder so geschädigt sind, daß sie keine Eier mehr produzeiren (Dosis effectiva).
Geprüfte Wirkstoffe und wirksame Dosierungen (Dosis effectiva) sind aus der nachfolgenden Tabelle ersichtlich: […]

[1] = tested on: Trichostrongylus colubriformis; assay: In vivo nematode test, Trichostrongylus colubriformis / sheep; conditions: experimentally infected sheep (Schaf), treated after the prepatent period, pure active compound in gelatin capsules, oral, dose giving complete cessation of egg excretion in faeces, read-out: Dosis effectiva
Source text: Trichostrongylus colubriformis / Schaf
Experimentell mit Trichostrongylus colubriformis infizierte Schafe wurden nach Ablauf der Präpatenzzeit des Parasiten behandelt. Die Wirkstoffe wurden als reiner Wirkstoff in Gelatinekapseln oral appliziert.
Der Wirkungsgrad wird dadurch bestimmt, daß man die mit dem Kot ausgeschiedenen Wurmeier vor und nach der Behandlung quantitativ auszählt.
Ein völliges Sistieren der Eiausscheidung nach der Behandlung bedeutet, daß die Würmer abgetrieben wurden oder so geschädigt sind, daß sie keine Eier mehr produzieren (Dosis effectiva).
Geprüfte Wirkstoffe und wirksame Dosierungen (Dosis effectiva) sind aus der nachfolgenden Tabelle ersichtlich.

| SMILES | minimal effective dose (Haemonchus contortus) [mg/kg] | minimal effective dose [1] [mg/kg] |
| --- | --- | --- |
| CCCSc1ncccc1C(=O)Nc1ccccc1Cl [Beispiel 6] | 5 | – |
| CCCSc1ncccc1C(=O)Nc1ccccc1 [Beispiel 2] | 10 | 10 |
| CSc1ncccc1C(=O)Nc1ccccc1 [Beispiel 1] | 10 | – |
| C=CCSc1ncccc1C(=O)Nc1ccccc1 [Beispiel 3] | – | 10 |
| CCSc1ncccc1C(=O)Nc1ccc(Cl)cc1 [Beispiel 13] | – | 10 |
| CSc1ncccc1C(=O)Nc1ccc(Sc2ccc(Cl)cc2)cc1C(F)(F)F [Beispiel 87] | – | 10 |
| CCCSc1ncccc1C(=O)Nc1ccc(Cl)cc1 [Beispiel 9] | 10 | – |
| CCCSc1ncccc1C(=O)Nc1ccc(SC(F)(F)F)cc1 [Beispiel 29] | 10 | 10 |
| CCSc1ncccc1C(=O)Nc1ccccc1 [Beispiel 24] | 10 | – |
| CSc1ncccc1C(=O)Nc1ccc(Cl)cc1 [Beispiel 7] | 10 | 5 |
